# Experimental data taken from patent publication EP0112332B1, “VITAMIN D GLYCOSIDES” (THE GENERAL HOSPITAL CORPORATION, priority 1982, dated 1984).
# Legend:
# [1] = Serum calcium determination (bone calcium mobilization) after oral dosing of vitamin D deficient rats on low calcium diet; format: in vivo
# Procedure: (§1) The vitamin D₃, 3β-glucoside vitamin D₃, 3α-glucoside and the vitamin D₃, 3β glucoside acetate were tested for biological activity. Male weanling rats from Holtzmann Company, Madison, Wisconsin, U.S.A., were fed a vitamin D deficient diet that was adequate in phosphorus and low in calcium (0.02%) for 3-1/2 weeks. Groups of five animals received orally either 4 µg, 1 µg, 0.5 µg, 0.25 µg of Vitamin D₃ -3β- glucoside, 1 µg Vitamin D₃ -3α- glucoside or 2 µg Vitamin D₃ -3β- glucoside acetate in 50 µl of 95% ethanol or vehicle alone. 24 hours later the animals were sacrificed and the small intestine and blood were collected. Intestinal calcium transport studies were performed by the everted gut sac technique, and blood was used for serum calcium determinations.
# [2] = test system: Intestinal calcium transport; test: Intestinal calcium transport by the everted gut sac technique after oral dosing of vitamin D deficient rats; format: in vivo; settings: for I/O (inside Ca⁴⁵/outside Ca⁴⁵) ± S.D.: 24 hours later, vehicle 1.6 ± 0.3; for stimulating intestinal calcium absorption (result in words): summary of the table data, oral dosing of rats
# Procedure: as §1
# [3] = in vivo, dosed parenterally and daily; cited from earlier work
Compound,"Serum Calcium ± S.D. ([1]; 4 µg orally in 50 µl of 95% ethanol, 24 hours later, vehicle 4.3 ± 0.2)","stimulating bone calcium mobilization (result in words) ([1]; summary of the table data, oral dosing of rats)",I/O (inside Ca⁴⁵/outside Ca⁴⁵) ± S.D. ([2]; 0.25 µg orally in 50 µl of 95% ethanol),I/O (inside Ca⁴⁵/outside Ca⁴⁵) ± S.D. ([2]; 0.5 µg orally in 50 µl of 95% ethanol),I/O (inside Ca⁴⁵/outside Ca⁴⁵) ± S.D. ([2]; 1 µg orally in 50 µl of 95% ethanol),"I/O (inside Ca⁴⁵/outside Ca⁴⁵) ± S.D. ([2]; 4 µg orally in 50 µl of 95% ethanol, male weanling rats, vitamin D deficient low calcium diet)",stimulating intestinal calcium absorption (result in words) [2],times more potent than D₃ [3],times more potent than the monohydroxy form of the vitamin [3],I/O (inside Ca⁴⁵/outside Ca⁴⁵) ± S.D. ([2]; 2 µg orally in 50 µl of 95% ethanol)
"C=C1CC[C@H](O[C@@H]2O[C@H](CO)[C@@H](O)[C@H](O)[C@H]2O)C/C1=C/C=C1\CCC[C@]2(C)[C@@H]([C@H](C)CCCC(C)C)CC[C@@H]12 [Vitamin D₃ 3β- glucoside, 9,10-secocholesta-5,7,10(19)triene-3β-yl -β-D-glucopyranoside]",5.3 ± 0.2,capable of stimulating,2.0 ± 0.2,2.5 ± 0.2,3.6 ± 0.3,3.9 ± 0.2,capable of stimulating intestinal calcium absorption,,,
"C=C1/C(=C\C=C2/CCC[C@]3(C)[C@@H]([C@H](C)CCCC(C)(C)O)CC[C@@H]23)C[C@@H](O)C[C@@H]1O [1α, 25-(OH)₂D₃]",,,,,,,,5-10 times,2-5 times,
"C=C1CC[C@H](O[C@@H]2O[C@H](COC(C)=O)[C@@H](OC(C)=O)[C@H](OC(C)=O)[C@H]2OC(C)=O)C/C1=C/C=C1\CCC[C@]2(C)[C@@H]([C@H](C)CCCC(C)C)CC[C@@H]12 [Vitamin D₃ 3β- glucoside acetate, 9,10-secocholesta-5,7,10(19)-trien-3β-yl-2',3',4',6'-tetra-O-acetyl -β-D-glucopyranoside]",,,,,,,appears inactive,,,1.7 ± 0.2
